Test results: US20250108053A1, “RIBOCICLIB PHARMACEUTICAL COMPOSITIONS” (Novartis AG, priority 2022, published 2025)
Blank lines part the entries; values can stand above or below the molecule they belong to.

Test: Preliminary studies of ribociclib succinate in oral solutions: pH, solubility, preservatives
Source text: To achieve a clear solution of ribociclib succinate upon reconstitution, sufficient quantity of acid is needed to adjust the pH of the liquid into an acidic range for ribociclib succinate to completely solubilize. For use in the present invention, suitable solubilizers are in the form of an acid.

[1] = oral solutions of ribociclib succinate

Compound: C/C=C/C=C/C(=O)[O-].[K+] [potassium sorbate]
pH required by the preservative [1]: about 3.5

Solubility in basic pH as compared to acidic pH: limited solubility in basic pH
pH range in which a clear solution was achieved (ribociclib succinate in oral solutions): 3.5-4.5
Compound: CN(C)C(=O)c1cc2cnc(Nc3ccc(N4CCNCC4)cn3)nc2n1C1CCCC1.O=C(O)CCC(=O)O [ribociclib succinate]

Compound: O=C([O-])c1ccccc1.[Na+] [sodium benzoate]
Observation in oral solution formulations with the preservative [1]: precipitation was observed
